Measurements from patent publication US9994552B2, “Compositions useful for treating disorders related to kit” (BLUEPRINT MEDICINES CORPORATION, priority 2013, dated 2018).

Experiments:
D816V Kit = D816V Kit (Homo sapiens (Human), UniProt P10721, D816V); assay: Kit D816V assay at Km (Caliper electrophoretic mobility shift); assay type: biochemical; settings: for IC50: D816V Kit 0.5 nM, 15 uM ATP (Km), 1 uM Srctide, 25 C, 90 minutes, read-out: INH-KITD816V ENZ-KM IC50 (nM) (Num); for times more potent against the D816V mutant than against the wild-type Kit: D816V Kit versus wild-type Kit, enzyme assays at Km
Method: (§1) In order to assess the activity of chemical compounds against the relevant kinase of interest, the Caliper LifeSciences electrophoretic mobility shift technology platform is used. Fluorescently labeled substrate peptide is incubated in the presence of kinase and ATP so that a […] proportion of the peptide is phosphorylated. At the end of the reaction, the mix of phosphorylated (product) and non-phosphorylated (substrate) peptides are passed through the microfluidic system of the Caliper EZ Reader 2, under an applied potential difference. The presence of the phosphate group on the product peptide provides a difference in mass and charge between those of the substrate peptide, resulting in a separation of the substrate and product pools in the sample. As the pools pass a LEDS within the instrument, these pools are detected and resolved as separate peaks. The ratio between these peaks therefore reflects the activity of the chemical matter at that concentration in that well, under those conditions.
(§2) The reaction was stopped by the addition of 70 ul of Stop buffer (100 mM HEPES pH 7.5, 0.015% Brij 35, 35 mM EDTA and 0.2% of Coating Reagent 3 (Caliper Lifesciences)). The plate was then read on a Caliper EZReader 2 (protocol settings: −1.9 psi, upstream voltage −700, downstream voltage −3000, post sample sip 35 s).

wild type Kit = wild type Kit (Homo sapiens (Human), UniProt P10721); assay: Kit wild type assay at Km (Caliper electrophoretic mobility shift); assay type: biochemical; settings: wild type Kit 2 nM, 400 uM ATP (Km), 1 uM Srctide, 25 C, 90 minutes; read-out: INH-KITWT ENZ-KM IC50 (nM) (Num)
Method: as §1, §2

Chain of wild type Kit (P10721 26-976): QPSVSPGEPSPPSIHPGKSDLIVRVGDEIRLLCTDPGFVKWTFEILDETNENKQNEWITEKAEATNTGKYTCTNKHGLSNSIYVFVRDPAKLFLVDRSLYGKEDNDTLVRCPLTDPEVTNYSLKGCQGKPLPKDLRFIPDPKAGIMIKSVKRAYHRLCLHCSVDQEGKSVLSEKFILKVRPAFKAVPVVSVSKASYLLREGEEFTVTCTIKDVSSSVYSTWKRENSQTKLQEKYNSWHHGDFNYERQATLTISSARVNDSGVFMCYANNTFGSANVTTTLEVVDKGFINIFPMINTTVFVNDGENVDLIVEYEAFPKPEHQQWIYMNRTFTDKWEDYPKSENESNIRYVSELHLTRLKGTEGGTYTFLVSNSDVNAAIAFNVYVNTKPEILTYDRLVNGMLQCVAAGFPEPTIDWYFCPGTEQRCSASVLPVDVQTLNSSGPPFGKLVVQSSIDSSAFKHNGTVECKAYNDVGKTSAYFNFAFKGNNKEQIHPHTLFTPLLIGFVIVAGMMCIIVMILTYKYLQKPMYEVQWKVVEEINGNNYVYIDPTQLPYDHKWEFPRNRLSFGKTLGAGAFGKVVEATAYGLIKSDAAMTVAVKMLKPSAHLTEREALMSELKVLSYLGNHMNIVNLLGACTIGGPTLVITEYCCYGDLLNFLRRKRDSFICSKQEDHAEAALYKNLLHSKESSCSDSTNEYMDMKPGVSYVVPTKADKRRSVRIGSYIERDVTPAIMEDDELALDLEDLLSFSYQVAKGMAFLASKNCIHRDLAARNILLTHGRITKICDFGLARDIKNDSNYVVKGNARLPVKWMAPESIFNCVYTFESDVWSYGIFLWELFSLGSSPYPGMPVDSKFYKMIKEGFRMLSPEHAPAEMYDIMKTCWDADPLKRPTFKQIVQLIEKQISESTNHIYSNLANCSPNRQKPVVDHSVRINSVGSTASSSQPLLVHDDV
Chain of D816V Kit (P10721 26-976 D816V): as the sequence (P10721 26-976) above, with D791V counted along it

Row | Structure (SMILES) | IC50 (D816V Kit) [nM] | IC50 (wild type Kit) [nM] | times more potent against the D816V mutant than against the wild-type Kit (D816V Kit)
1 | COc1cc2ncnc(N3CCN(c4ncc(O[C@@H](C)c5ccccc5)cn4)CC3)c2cc1OC [Compound 64] | 10 to 100 | > 1000 | –
2 | COc1cc2ncnc(N3CCN(c4ncc(OCc5ccccc5C)cn4)CC3)c2cc1OC [Compound 65] | 10 to 100 | > 1000 | –
3 | COc1cc2ncnc(N3CCN(c4ncc(OCc5ccccc5)cn4)C(C)C3)c2cc1OC (centres unmarked) [Compound 66] | 10 to 100 | > 1000 | –
4 | COc1cc2ncnc(N3CCN(c4ncc(OCc5ccccc5)cn4)C[C@H]3C)c2cc1OC [Compound 67] | > 100 | > 1000 | less than 5 times
5 | COc1cc2ncnc(N3CCN(c4ncc(OCc5ccc(F)cc5)cn4)CC3)c2cc1OC [Compound 69] | 10 to 100 | 100 to 1000 | –
6 | COc1cc2ncnc(N3CCN(c4ncc(OCc5ccc(C#N)cc5)cn4)CC3)c2cc1OC [Compound 73] | > 100 | > 1000 | at least 100 times
7 | COc1cc2ncnc(N3CCN(c4ncc(N5CCCc6ccccc65)cn4)CC3)c2cc1OC [Compound 74] | 10 to 100 | 100 to 1000 | –
8 | COc1cc2ncnc(N3CCN(c4ncc(NC(=O)Cc5ccccc5)cn4)CC3)c2cc1OC [Compound 76] | 10 to 100 | 100 to 1000 | –
9 | COc1ccc(COc2cnc(N3CCN(c4ncnc5cc(OC)c(OC)cc45)CC3)nc2)cc1 [Compound 77] | 10 to 100 | > 1000 | at least 100 times
10 | COc1cc2ncnc(N3CCN(c4ncc(S(=O)(=O)c5ccccc5)cn4)CC3)c2cc1OC [Compound 78] | 10 to 100 | > 1000 | –
11 | COc1cc2ncnc(N3CCN(c4ncc(Cc5ccccc5)cn4)CC3)c2cc1OC1CCNC1 (centres unmarked) [Compound 80] | 1.01 to 10 | 11 to 100 | –
12 | COc1cc2ncnc(N3CCN(c4ncc(Cc5ccc(C(C)(C)C)cc5)cn4)CC3)c2cc1OC [Compound 81] | 10 to 100 | > 1000 | –
13 | COc1cc2ncnc(N3CCN(c4ncc(Nc5ccc(C(C)(C)C)cc5)cn4)CC3)c2cc1OC [Compound 82] | > 100 | > 1000 | –
14 | COc1cc2ncnc(N3CCN(c4ncc(Cc5ccc(OC(F)F)cc5)cn4)CC3)c2cc1OC [Compound 86] | 1.01 to 10 | 100 to 1000 | –
15 | CN1CCC(COc2ccc3ncnc(N4CCN(c5ncc(Cc6ccccc6)cn5)CC4)c3c2)CC1 [Compound 87] | 1.01 to 10 | 100 to 1000 | –
16 | COc1cc2ncnc(N3CCN(c4ncc(Cc5ccccc5)cn4)CC3)c2cc1OC1CCNCC1 [Compound 91] | 1.01 to 10 | 11 to 100 | –
17 | COc1cc2ncnc(N3CCN(c4ncc(Cc5ccccc5)cn4)CC3)c2cc1OC1CCN(C)C1 (centres unmarked) [Compound 92] | 1.01 to 10 | 100 to 1000 | –
18 | COc1cc2c(N3CCN(c4ncc(Cc5ccccc5)cn4)CC3)ncnc2cc1OCC1(C)COC1 [Compound 93] | 1.01 to 10 | 11 to 100 | –

Row | Structure (SMILES) | IC50 (D816V Kit) [nM] | IC50 (wild type Kit) [nM] | times more potent against the D816V mutant than against the wild-type Kit (D816V Kit)
19 | COc1cc2ncnc(N3CCN(c4ncc(OCc5ccc(C(C)(C)C)cc5)cn4)CC3)c2cc1OC [Compound 94] | > 100 | > 1000 | –
20 | CN1CCC(COc2ccc3ncnc(N4CCN(c5ncc(Cc6ccccc6)c(N)n5)CC4)c3c2)CC1 [Compound 95] | 1.01 to 10 | 11 to 100 | –
21 | CN1CCC(COc2ccc3ncnc(N4CCN(c5ncc(Cc6ccccc6)c(=O)[nH]5)CC4)c3c2)CC1 [Compound 100] | 1.01 to 10 | 100 to 1000 | –
22 | COc1cc2ncnc(N3CCN(c4ncc(Cc5cccc(OC(F)(F)F)c5)cn4)CC3)c2cc1OC [Compound 101] | 10 to 100 | 100 to 1000 | –
23 | COc1cc2ncnc(N3CCN(c4ncc(OCc5ccc(C(F)(F)F)cc5)cn4)CC3)c2cc1OC [Compound 102, 6,7-dimethoxy-4-(4-(5-((4-(trifluoromethyl)benzyl)oxy)pyrimidin-2-yl)piperazin-1-yl)quinazoline] | > 100 | > 1000 | –
24 | COc1cc2ncnc(N3CCN(c4ncc(OCc5cc(Cl)cc(Cl)c5)cn4)CC3)c2cc1OC [Compound 103] | > 100 | > 1000 | –
25 | COc1cc2ncnc(N3CCN(c4ncc(Cc5ccccc5)cn4)CC3)c2cc1OC[C@@H]1CNCCO1 [Compound 106] | 1.01 to 10 | 11 to 100 | –
26 | COc1cc2ncnc(N3CCN(c4ncc(Cc5ccccc5)cn4)CC3)c2cc1OC[C@H]1CCCN(C)C1 [Compound 115] | 1.01 to 10 | 11 to 100 | –
27 | COc1cc2ncnc(N3CCN(c4ncc(Cc5ccccc5)cn4)CC3)c2cc1OCCN1CCNCC1 [Compound 116] | 1.01 to 10 | 11 to 100 | –
28 | COc1cc2ncnc(N3CCN(c4ncc(Cc5ccccc5)cn4)CC3)c2cc1OC1CCN(CCO)C1 (centres unmarked) [Compound 118] | 1.01 to 10 | 11 to 100 | –
29 | COc1cc2ncnc(N3CC4CCC(C3)N4c3ncc(Cc4ccccc4)cn3)c2cc1OCC1CNCCO1 (centres unmarked) [Compound 121] | < 1 | 11 to 100 | –
30 | COc1cc2ncnc(N3CCN(c4ncc(Cc5ccccc5)cn4)CC3)c2cc1OCCN1CCN(C)CC1 [Compound 126] | 1.01 to 10 | 11 to 100 | –
31 | COc1cc2ncnc(N3CCN(c4ncc(Cc5ccccc5)c(=O)[nH]4)CC3)c2cc1OC[C@@H]1CCCN(C)C1 [Compound 128] | 1.01 to 10 | 11 to 100 | –
32 | COc1cc2ncnc(N3CCN(c4ncc(Cc5ccccc5)cn4)CC3)c2cc1OC1CCN(CCO)CC1 [Compound 129] | 1.01 to 10 | 11 to 100 | less than 5 times
33 | COc1cc2ncnc(N3CCN(c4ncc(Cc5ccccc5)c(=O)[nH]4)CC3)c2cc1OCC1CN(C)CCO1 (centres unmarked) [Compound 130] | 1.01 to 10 | < 10 | –
34 | COc1cc2ncnc(N3CCN(c4ncc(Nc5ccc(F)cc5)cn4)CC3)c2cc1OCC1CCN(C)CC1 [Compound 132] | 1.01 to 10 | 11 to 100 | –
35 | COc1cc2ncnc(N3CCN(c4ncc(Oc5ccc(F)cc5)cn4)CC3)c2cc1OCC1CCN(C)CC1 [Compound 133] | 1.01 to 10 | 11 to 100 | –

Now from value to compound:

Row | IC50 (D816V Kit) [nM] | IC50 (wild type Kit) [nM] | times more potent against the D816V mutant than against the wild-type Kit (D816V Kit) | Structure (SMILES)
36 | 1.01 to 10 | 100 to 1000 | – | COc1cc2ncnc(N3CCN(c4ncc(Nc5ccc(Cl)cc5)cn4)CC3)c2cc1OC [Compound 70]
37 | 1.01 to 10 | 100 to 1000 | – | COc1cc2ncnc(N3CCN(c4ncc(Nc5ccc(F)c(F)c5)cn4)CC3)c2cc1OC [Compound 71]
38 | 1.01 to 10 | 100 to 1000 | – | COc1cc2ncnc(N3CCN(c4ncc(Cc5cccc(C(N)=O)c5)cn4)CC3)c2cc1OC [Compound 75]
39 | < 1 | 11 to 100 | – | COc1cc2ncnc(N3CCN(c4ncc(Cc5ccccc5)cn4)CC3)c2cc1OCC1CCNC1 (centres unmarked) [Compound 89]
40 | < 1 | 11 to 100 | – | COc1cc2ncnc(N3CCN(c4ncc(Cc5ccccc5)cn4)CC3)c2cc1OCC1CN(C)C1 [Compound 90]
41 | < 1 | 11 to 100 | – | COc1cc2ncnc(N3CCN(c4ncc(Cc5ccccc5)cn4)CC3)c2cc1OCC1CCN(C)C1 (centres unmarked) [Compound 96]
42 | < 1 | 11 to 100 | – | COc1cc2ncnc(N3CCN(c4ncc(Cc5ccccc5)cn4)CC3)c2cc1OCC1CCCNC1 (centres unmarked) [Compound 97]
43 | < 1 | 11 to 100 | – | COc1cc2ncnc(N3CCN(c4ncc(Cc5ccccc5)cn4)CC3)c2cc1OC[C@H]1CNCCO1 [Compound 104]
44 | < 1 | 11 to 100 | – | COc1cc2ncnc(N3CCN(c4ncc(Cc5ccccc5)cn4)CC3)c2cc1OCCN1CCCC1=O [Compound 110]
45 | < 1 | 11 to 100 | – | COc1cc2ncnc(N3CCN(c4ncc(Cc5ccccc5)cn4)CC3)c2cc1OC[C@@H]1CCCN(C)C1 [Compound 113]
46 | < 1 | 11 to 100 | – | COc1cc2ncnc(N3CCN(c4ncc(Cc5ccccc5)cn4)CC3)c2cc1OCC1CCCN(C)C1 (centres unmarked) [Compound 114]
47 | < 1 | 11 to 100 | – | COc1cc2ncnc(N3CCN(c4ncc(Cc5ccccc5)cn4)CC3)c2cc1OCC1CN(C)CCO1 (centres unmarked) [Compound 117]
48 | < 1 | < 10 | – | COc1cc2ncnc(N3CCN(c4ncc(Cc5ccccc5)c(=O)[nH]4)CC3)c2cc1OC[C@H]1CNCCO1 [Compound 120]
49 | < 1 | < 10 | – | CCOc1cc2ncnc(N3CCN(c4ncc(Cc5ccccc5)cn4)CC3)c2cc1OCC1CCN(C)CC1 [Compound 122]
50 | < 1 | < 10 | – | COc1cc2ncnc(N3CCN(c4ncc(Cc5ccccc5)c(N)n4)CC3)c2cc1OC[C@@H]1CCCN(C)C1 [Compound 124]
51 | < 1 | < 10 | – | COc1cc2ncnc(N3CCN(c4ncc(Cc5ccccc5)c(=O)[nH]4)CC3)c2cc1OCC1CCN(C)CC1 [Compound 127]
52 | < 1 | < 10 | – | COc1cc2ncnc(N3CCN(c4ncc(Cc5ccccc5)cn4)CC3)c2cc1OCC1(F)CCN(C)CC1 [Compound 131]
53 | < 1 | < 10 | – | CCOc1cc2ncnc(N3CCN(c4ncc(Cc5ccccc5)c(N)n4)CC3)c2cc1OCC1CCN(C)CC1 [Compound 135]
